The record followed here is patent US11993599B2, “Therapeutic compounds” (Genentech, Inc., priority 2021, dated 2024).

Holding throughout (type): cell-based
Test [1] deals with T1, BRM (Homo sapiens, UniProt P51531). In words: HiBIT nanoluciferase complementation screen for BRM degraders. The settings on record: 18 hours, BRM-HiBIT KI Hela cells, luminescence normalized: DMSO only = 0%, no cells = −100%; for Median HiBiT activity 1 μM: compound 1 μM; for Median HiBiT activity 10 μM: compound 10 μM. The source says:
Example B-1: HiBIT Nanoluciferase Complementation Screen for BRM Degraders
To assess BRM degradation, compounds were screened for their effect of BRM levels using the HiBIT nanoluciferase complementation strategy developed at Promega. In brief, a HELA cell line that was genetically modified via CRISPR/CAS9 was used to fuse the HiBIT sequence at the 3′ end of BRM (BRM-HiBIT KI Hela). BRM protein levels were then detected using the Nano-Glo HiBIT lytic detection reagent (Promega).
The screened compounds were plated into a white 384-well plate at 10 μM and 1 μM in 25 nL DMSO using an Echo dispenser (Labcyte). BRM-HiBIT KI Hela cells were seeded in the compound plate at 5000 cell per well at 25 μl in DMEM growth media (containing 10% FBS, 1% Glutamax (GIBCO cat #31053-028), lx Penicillin-Streptomycin (ROCHE, cat #1107444001), 4.5 g/L D-Glucose, and no phenol red). After incubation with compounds for 18 hours at 37° C., cell viability was assessed by the addition of 5 μl Cell Titer-Fluor reagent (Promega). After 30 s of mixing on an orbital shaker, and 30 minutes incubation at 37° C., fluorescence was measured with an INFINITE F500 (Tecan) (380-400 nm excitation, 505 nm emission). Next, to assess BRM HiBIT levels, 30 μl of Nano-Glo HiBIT lytic detection reagent (Promega) containing 1:50 Nano-Glo HiBIT lytic substrate and 1:100 LgBIT protein per ml of lytic buffer was added. After shaking on an orbital shaker at 350 rpm for 10 minutes, luminescence was measured on the INFINITE F500 (Tecan). To assess compound effects, luminescence signal was normalized with the mean of wells treated with DMSO only set to 0% and the mean of wells containing no cells set to −100%. Note that, in Table 4, the “Compound Number” corresponds to that used in Table 1.
For orientation: The HiBiT peptide binds its large partner to form an active luciferase.

Another test concerns the target T2, BRG1 (Homo sapiens, UniProt P51532).
T2 construct: either BRM primary antibody (Cell signaling Cat #11966) or BRG primary antibody (Abcam, ab 110641); endogenous in cells; host or cells: SW1573
As to the kind of experiment: Immunofluorescence assay for BRG1 degradation in SW1573 cells. The note with it: 20 hours incubation; for DC50: immunofluorescence mean nuclear signal, read-out: BRG1 IF Degradation IC50; for Dmax: SW1573, 20 h, normalized to a known degrader control, read-out: BRG1 IF Degradation Sinf (%). A digest of the protocol: (§1)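 Imaging-based readout in SW1573: 20 h dosing, formaldehyde fixation, antibody staining for either remodeler, nuclear intensity per cell quantified. Values normalized to control degrader; floating-maximum fit.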

Test [2] deals with T1, BRM. In words: Immunofluorescence assay for BRM degradation in SW1573 cells. More on the design: treated overnight at 4° C. with either BRM primary antibody (Cell signaling Cat #11966) or BRG primary antibody; endogenous in cells; host or cells: SW1573. The settings on record: 20 hours incubation; for DC50: immunofluorescence mean nuclear signal, read-out: BRM IF Degradation IC50; for BRM IF Degradation Sinf (%): normalized to a known degrader control. A digest of the protocol: as §1

T2 sequence (P51532 whole entry): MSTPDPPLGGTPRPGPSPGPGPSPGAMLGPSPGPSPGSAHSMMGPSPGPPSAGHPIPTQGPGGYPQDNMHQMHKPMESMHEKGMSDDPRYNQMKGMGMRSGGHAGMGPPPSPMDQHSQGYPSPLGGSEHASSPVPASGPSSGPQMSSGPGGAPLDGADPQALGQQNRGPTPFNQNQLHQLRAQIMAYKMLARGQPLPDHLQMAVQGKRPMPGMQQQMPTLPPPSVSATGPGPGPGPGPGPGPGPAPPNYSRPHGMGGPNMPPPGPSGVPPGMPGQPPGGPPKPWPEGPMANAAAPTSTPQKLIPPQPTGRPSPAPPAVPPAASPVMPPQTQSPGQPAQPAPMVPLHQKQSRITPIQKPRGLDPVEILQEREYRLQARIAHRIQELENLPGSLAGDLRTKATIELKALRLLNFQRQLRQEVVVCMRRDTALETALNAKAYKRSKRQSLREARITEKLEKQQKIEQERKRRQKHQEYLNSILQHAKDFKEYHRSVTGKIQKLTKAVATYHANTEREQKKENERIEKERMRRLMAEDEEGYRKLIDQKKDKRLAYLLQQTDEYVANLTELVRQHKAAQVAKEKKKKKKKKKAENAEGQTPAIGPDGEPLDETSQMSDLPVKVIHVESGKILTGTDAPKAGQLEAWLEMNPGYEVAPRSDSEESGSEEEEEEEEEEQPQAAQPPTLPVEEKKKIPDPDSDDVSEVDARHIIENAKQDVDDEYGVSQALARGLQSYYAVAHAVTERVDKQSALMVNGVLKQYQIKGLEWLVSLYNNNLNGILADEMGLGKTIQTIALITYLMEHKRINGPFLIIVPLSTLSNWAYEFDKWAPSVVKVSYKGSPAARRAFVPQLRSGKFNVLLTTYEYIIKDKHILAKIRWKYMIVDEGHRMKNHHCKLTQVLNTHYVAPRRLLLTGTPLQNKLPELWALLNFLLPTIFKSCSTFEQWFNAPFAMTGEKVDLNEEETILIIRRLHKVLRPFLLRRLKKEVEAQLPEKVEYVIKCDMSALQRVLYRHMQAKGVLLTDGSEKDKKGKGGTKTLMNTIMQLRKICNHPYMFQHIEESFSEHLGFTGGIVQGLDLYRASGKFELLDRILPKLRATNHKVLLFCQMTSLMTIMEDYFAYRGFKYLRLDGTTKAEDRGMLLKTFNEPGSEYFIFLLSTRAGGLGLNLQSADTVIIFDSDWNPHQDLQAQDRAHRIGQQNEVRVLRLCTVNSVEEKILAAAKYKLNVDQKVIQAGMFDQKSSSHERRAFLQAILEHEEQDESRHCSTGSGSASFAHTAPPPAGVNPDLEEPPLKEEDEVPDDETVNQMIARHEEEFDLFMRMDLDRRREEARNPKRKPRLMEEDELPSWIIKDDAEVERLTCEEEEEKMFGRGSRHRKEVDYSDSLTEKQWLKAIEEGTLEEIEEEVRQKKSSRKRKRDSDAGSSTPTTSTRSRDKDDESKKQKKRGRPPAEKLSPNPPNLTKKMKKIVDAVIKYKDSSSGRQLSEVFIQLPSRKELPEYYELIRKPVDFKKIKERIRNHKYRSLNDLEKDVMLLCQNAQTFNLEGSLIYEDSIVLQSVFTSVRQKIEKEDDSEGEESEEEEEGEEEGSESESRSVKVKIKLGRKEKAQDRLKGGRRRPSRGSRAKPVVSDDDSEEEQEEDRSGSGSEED
T1 sequence (P51531 whole entry): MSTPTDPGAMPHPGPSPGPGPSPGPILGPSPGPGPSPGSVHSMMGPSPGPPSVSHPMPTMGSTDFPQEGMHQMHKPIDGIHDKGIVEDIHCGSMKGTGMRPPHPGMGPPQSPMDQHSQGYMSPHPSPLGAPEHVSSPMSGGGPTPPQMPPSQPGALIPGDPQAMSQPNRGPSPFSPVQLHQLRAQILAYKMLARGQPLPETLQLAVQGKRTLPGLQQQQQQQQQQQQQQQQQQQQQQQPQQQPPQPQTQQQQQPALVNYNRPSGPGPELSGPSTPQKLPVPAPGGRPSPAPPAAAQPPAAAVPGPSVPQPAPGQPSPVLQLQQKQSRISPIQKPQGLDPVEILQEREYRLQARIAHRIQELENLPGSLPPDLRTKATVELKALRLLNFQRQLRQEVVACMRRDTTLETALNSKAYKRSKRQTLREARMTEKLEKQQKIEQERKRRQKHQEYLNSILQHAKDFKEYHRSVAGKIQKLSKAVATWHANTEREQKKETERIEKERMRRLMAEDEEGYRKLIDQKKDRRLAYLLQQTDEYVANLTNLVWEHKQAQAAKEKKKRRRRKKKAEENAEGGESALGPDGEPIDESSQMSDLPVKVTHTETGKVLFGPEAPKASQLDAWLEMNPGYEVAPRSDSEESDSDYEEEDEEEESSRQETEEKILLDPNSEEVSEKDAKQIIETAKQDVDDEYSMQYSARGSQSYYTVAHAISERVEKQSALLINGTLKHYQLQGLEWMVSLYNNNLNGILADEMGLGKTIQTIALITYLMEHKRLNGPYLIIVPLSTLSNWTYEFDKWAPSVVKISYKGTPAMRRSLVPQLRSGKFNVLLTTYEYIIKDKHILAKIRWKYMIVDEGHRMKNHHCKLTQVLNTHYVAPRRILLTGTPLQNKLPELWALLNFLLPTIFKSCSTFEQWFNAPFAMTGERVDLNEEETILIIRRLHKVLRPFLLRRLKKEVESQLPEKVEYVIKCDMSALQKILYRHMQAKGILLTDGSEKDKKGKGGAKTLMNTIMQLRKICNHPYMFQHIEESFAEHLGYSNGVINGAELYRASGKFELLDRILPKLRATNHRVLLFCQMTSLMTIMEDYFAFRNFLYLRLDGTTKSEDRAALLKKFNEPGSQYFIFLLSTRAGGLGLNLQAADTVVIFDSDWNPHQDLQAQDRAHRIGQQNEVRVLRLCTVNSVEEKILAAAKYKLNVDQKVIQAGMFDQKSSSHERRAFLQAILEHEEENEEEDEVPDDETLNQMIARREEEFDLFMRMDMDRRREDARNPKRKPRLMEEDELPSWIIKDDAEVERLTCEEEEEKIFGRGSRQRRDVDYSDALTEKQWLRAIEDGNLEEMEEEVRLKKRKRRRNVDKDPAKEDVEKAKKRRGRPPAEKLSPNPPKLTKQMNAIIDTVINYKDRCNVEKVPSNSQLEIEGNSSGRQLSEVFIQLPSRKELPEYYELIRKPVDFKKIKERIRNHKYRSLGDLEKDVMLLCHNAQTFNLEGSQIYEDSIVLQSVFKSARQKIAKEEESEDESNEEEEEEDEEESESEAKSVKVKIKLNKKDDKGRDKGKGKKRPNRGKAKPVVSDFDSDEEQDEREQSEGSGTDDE

In the case of `Nc1nnc(-c2ccccc2O)cc1N1CC2CCC(C1)N2c1ccnc(C#CCCN2CCNCC2)c1` [Compound 1, 2-(6-amino-5-(8-(2-(4-(piperazin-1-yl)but-1-yn-1-yl)pyridin-4-yl)-3,8-diazabicyclo[3.2.1]octan-3-yl)pyridazin-3-yl)phenol], at BRM [1], the “Median HiBiT activity 1 μM” value is given as −87.0122% and the “Median HiBiT activity 10 μM” value is listed as −81.2914%. At BRG1, the DC50 was more than 100 nM and the Dmax lay within 71 to 120%. Further, at BRM [2], the DC50 is 10 to 100 nM and the “BRM IF Degradation Sinf (%)” value was “F (F indicates −71%-−120%)”.
With `Nc1nnc(-c2ccccc2O)cc1N1CC2CCC(C1)N2c1ccnc(C#CCN2CCCC2)c1` [Compound 2, 2-(6-amino-5-(8-(2-(3-(pyrrolidin-1-yl)prop-1-yn-1-yl)pyridin-4-yl)-3,8-diazabicyclo[3.2.1]octan-3-yl)pyridazin-3-yl)phenol], on BRM [1], the “Median HiBiT activity 1 μM” value is −73.6048% and the “Median HiBiT activity 10 μM” value is −28.0898%. On BRG1, the DC50 is less than 10 nM and the Dmax fell in the range of 30 to 70%. Also, on BRM [2], the DC50 was less than 10 nM and the “BRM IF Degradation Sinf (%)” value is listed as “E (E indicates −30%-−70%)”.
For `CN(CC#Cc1cc(N2C3CCC2CN(c2cc(-c4ccccc4O)nnc2N)C3)ccn1)CCO` [Compound 3, 2-(6-amino-5-(8-(2-(3-((2-hydroxyethyl)(methyl)amino)prop-1-yn-1-yl)pyridin-4-yl)-3,8-diazabicyclo[3.2.1]octan-3-yl)pyridazin-3-yl)phenol], on BRM [1], the “Median HiBiT activity 1 μM” value was −68.4262% and the “Median HiBiT activity 10 μM” value is −39.6172%. Moreover, on BRG1, the DC50 lay in the range of 10 to 100 nM and the Dmax was in the range of 30 to 70%. Further, at BRM [2], the DC50 was 10 to 100 nM and the “BRM IF Degradation Sinf (%)” value was “E (E indicates −30%-−70%)”.
As for `Nc1nnc(-c2ccccc2O)cc1N1CC2CCC(C1)N2c1ccnc(C#CCOCCO)c1` [Compound 4, 2-(6-amino-5-(8-(2-(3-(2-hydroxyethoxy)prop-1-yn-1-yl)pyridin-4-yl)-3,8-diazabicyclo[3.2.1]octan-3-yl)pyridazin-3-yl)phenol], on BRM [1], the “Median HiBiT activity 1 μM” value was −65.5436% and the “Median HiBiT activity 10 μM” value was −51.5968%. In addition, on BRG1, the DC50 was 10 to 100 nM and the Dmax was in the range of 0 to 30%. At BRM [2], the DC50 lay within 10 to 100 nM and the “BRM IF Degradation Sinf (%)” value is listed as “E (E indicates −30%-−70%)”.
As for `CCN(CC)CC#Cc1cc(N2C3CCC2CN(c2cc(-c4ccccc4O)nnc2N)C3)ccn1` [Compound 5, 2-(6-amino-5-(8-(2-(3-(diethylamino)prop-1-yn-1-yl)pyridin-4-yl)-3,8-diazabicyclo[3.2.1]octan-3-yl)pyridazin-3-yl)phenol], at BRM [1], the “Median HiBiT activity 1 μM” value is given as −63.6385% and the “Median HiBiT activity 10 μM” value is listed as −31.0597%. Besides, at BRG1, the DC50 was less than 10 nM and the Dmax was in the range of 30 to 70%. On BRM [2], the DC50 was less than 10 nM and the “BRM IF Degradation Sinf (%)” value is listed as “E (E indicates −30%-−70%)”.
Consider `Nc1nnc(-c2ccccc2O)cc1N1CC2CCC(C1)N2c1ccnc(C#CC2CNC2)c1` [Compound 6, 2-(6-amino-5-(8-(2-(azetidin-3-ylethynyl)pyridin-4-yl)-3,8-diazabicyclo[3.2.1]octan-3-yl)pyridazin-3-yl)phenol], for which, on BRM [1], the “Median HiBiT activity 1 μM” value was −61.1458% and the “Median HiBiT activity 10 μM” value was −67.7912%. At BRG1, the DC50 is more than 100 nM and the Dmax was 0 to 30%. On BRM [2], the DC50 was 10 to 100 nM and the “BRM IF Degradation Sinf (%)” value is listed as “E (E indicates −30%-−70%)”.
In the case of `Nc1nnc(-c2ccccc2O)cc1N1CC2CCC(C1)N2c1ccnc(C#CC2CNCCO2)c1` (centres unmarked) [Compound 7, 2-(6-amino-5-(8-(2-(morpholin-2-ylethynyl)pyridin-4-yl)-3,8-diazabicyclo[3.2.1]octan-3-yl)pyridazin-3-yl)phenol], at BRM [1], the “Median HiBiT activity 1 μM” value was −56.5569% and the “Median HiBiT activity 10 μM” value is −25.5864%. In addition, the DC50 on BRG1 is more than 100 nM. Besides, at BRM [2], the DC50 was less than 10 nM and the “BRM IF Degradation Sinf (%)” value was “E (E indicates −30%-−70%)”.
For `Nc1nnc(-c2ccccc2O)cc1N1CC2CCC(C1)N2c1ccnc(C#CC2CCCNC2)c1` (centres unmarked) [Compound 8, 2-(6-amino-5-(8-(2-(piperidin-3-ylethynyl)pyridin-4-yl)-3,8-diazabicyclo[3.2.1]octan-3-yl)pyridazin-3-yl)phenol] the same measures were −51.6794%, −23.8415%, more than 100 nM, 10 to 100 nM and “E (E indicates −30%-−70%)”.
Consider `Nc1nnc(-c2ccccc2O)cc1N1CC2CCC(C1)N2c1ccnc(C#CCN2CCOCC2)c1` [Compound 9, 2-(6-amino-5-(8-(2-(3-morpholinoprop-1-yn-1-yl)pyridin-4-yl)-3,8-diazabicyclo[3.2.1]octan-3-yl)pyridazin-3-yl)phenol], for which, on BRM [1], the “Median HiBiT activity 1 μM” value is given as −50.6553% and the “Median HiBiT activity 10 μM” value is on record as −33.5251%. Moreover, at BRG1, the DC50 was less than 10 nM and the Dmax lay within 0 to 30%. Further, at BRM [2], the DC50 was in the range of 10 to 100 nM and the “BRM IF Degradation Sinf (%)” value was “E (E indicates −30%-−70%)”.
On to `Nc1nnc(-c2ccccc2O)cc1N1CC2CCC(C1)N2c1ccnc(C#CCN2CCNCC2=O)c1` [Compound 10, 1-(3-(4-(3-(3-amino-6-(2-hydroxyphenyl)pyridazin-4-yl)-3,8-diazabicyclo[3.2.1]octan-8-yl)pyridin-2-yl)prop-2-yn-1-yl)piperazin-2-one], for which, at BRM [1], the “Median HiBiT activity 1 μM” value is −50.554% and the “Median HiBiT activity 10 μM” value was −56.7556%. On BRG1, the DC50 is more than 100 nM. For the same compound, on BRM [2], the DC50 is 10 to 100 nM and the “BRM IF Degradation Sinf (%)” value is recorded as “E (E indicates −30%-−70%)”.
In the case of `NCCCCCCC#Cc1cc(N2C3CCC2CN(c2cc(-c4ccccc4O)nnc2N)C3)ccn1` [Compound 11, 2-(6-amino-5-(8-(2-(8-aminooct-1-yn-1-yl)pyridin-4-yl)-3,8-diazabicyclo[3.2.1]octan-3-yl)pyridazin-3-yl)phenol], on BRM [1], the “Median HiBiT activity 1 μM” value is −46.2503% and the “Median HiBiT activity 10 μM” value was −53.1423%. On BRG1, the DC50 is 10 to 100 nM and the Dmax was 30 to 70%. Moreover, on BRM [2], the DC50 fell in the range of 10 to 100 nM and the “BRM IF Degradation Sinf (%)” value is listed as “F (F indicates −71%-−120%)”.
With `Nc1nnc(-c2ccccc2O)cc1N1CC2CCC(C1)N2c1ccnc(C#CCC2CCNC2)c1` (centres unmarked) [Compound 34, 2-(6-amino-5-(8-(2-(3-(pyrrolidin-3-yl)prop-1-yn-1-yl)pyridin-4-yl)-3,8-diazabicyclo[3.2.1]octan-3-yl)pyridazin-3-yl)phenol], at BRM [1], the “Median HiBiT activity 1 μM” value is −7.217% and the “Median HiBiT activity 10 μM” value is on record as −29.4355%. For the same compound, on BRM [2], the DC50 is more than 100 nM.
On to `Nc1nnc(-c2ccccc2O)cc1N1CCC2(CCN(c3ccnc(C#CCN4CCCCCC4)c3)C2)CC1` [Compound 250, 2-(6-amino-5-(2-(2-(3-(azepan-1-yl)prop-1-yn-1-yl)pyridin-4-yl)-2,8-diazaspiro[4.5]decan-8-yl)pyridazin-3-yl)phenol], for which, at BRG1, the DC50 lay in the range of 10 to 100 nM and the Dmax was 30 to 70%. For the same compound, at BRM [2], the DC50 is less than 10 nM and the “BRM IF Degradation Sinf (%)” value is on record as “E (E indicates −30%-−70%)”.
For `Nc1nnc(-c2ccccc2O)cc1N1CC2(CN(c3ccnc(C#CCN4CCCCCC4)c3)C2)C1` [Compound 251, 2-[6-amino-5-[6-[2-[3-(azepan-1-yl)prop-1-ynyl]-4-pyridyl]-2,6-diazaspiro[3.3]heptan-2-yl]pyridazin-3-yl]phenol] the same measures were 10 to 100 nM, 30 to 70%, less than 10 nM and “E (E indicates −30%-−70%)”.
